This note sets out measurements from US9834549B2, “3,3-disubstituted-(8-aza-bicyclo[3.2.1]OCT-8-yl)-[5-(1H-pyrazol-4-yl)-thiophen-3-yl]-methanones as inhibitors of 11 (β)-HSD1” (The University Of Edinburgh, priority 2010, dated 2017).

For one data set, the target named is T1, human 11β-HSD1 (Homo sapiens, UniProt P28845).
T1 construct: stably transfected with a construct containing the full-length gene coding for the human 11β-HSD1 enzyme; expressed in transfected cells; host or cells: HEK293 (stably transfected, HEK293/11β-HSD1)
T1 sequence (P28845 whole entry): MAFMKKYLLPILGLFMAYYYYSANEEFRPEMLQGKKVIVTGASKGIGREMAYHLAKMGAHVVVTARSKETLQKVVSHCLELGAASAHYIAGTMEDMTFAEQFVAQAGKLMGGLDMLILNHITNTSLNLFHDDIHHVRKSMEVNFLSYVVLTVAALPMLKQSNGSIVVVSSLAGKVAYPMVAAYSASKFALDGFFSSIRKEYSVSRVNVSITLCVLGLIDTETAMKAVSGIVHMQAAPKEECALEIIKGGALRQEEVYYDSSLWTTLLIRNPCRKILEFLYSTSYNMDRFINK
Put plainly: Cellular in vitro 11β-HSD1 enzyme inhibition assay (SPA, HEK293/11β-HSD1 cells). Format: cell-based. As for the experimental part: Compounds were assessed by a Scintillation Proximity Assay (SPA) performed according to the following protocol:
HEK293 cells were stably transfected with a construct containing the full-length gene coding for the human 11β-HSD1 enzyme to create HEK293/11β-HSD1 cells. Cells were routinely cultured in DMEM containing 10% calf foetal serum, 1% glutamine, and 1% penicillin and streptomycin. Prior to assay, cells were plated at 2×10^4 cells/well in 96-well poly-D-Lys coated flat-bottomed microplates and incubated in 5% CO2, 95% O2 at 37° C. for 24 hours. The media in each well was removed immediately before assay.
Compounds to be tested were dissolved in DMSO at 10 mM and serially diluted into water containing 10% DMSO. Diluted compounds at a volume of 10 μL were added to wells of a 96-well V-bottomed microplate. A solution of DMEM, 1% glutamine, 1% penicillin and streptomycin, and 22 nM tritiated cortisone was prepared and 90 μL added to each well of the assay plate. This solution (100 μL/well) was transferred to the plate containing the cells. The plate was then incubated in 5% CO2, 95% O2 at 37° C. for 2 hours.
Following this incubation, 50 μL of the assay solution was transferred to each well of a 96-well scintillation microplate. A mixture consisting of anti-mouse YSi SPA beads, pre-mixed with anti-cortisol antibody in assay buffer (50 mM Tris.HCl, pH 7.0; 300 mM NaCl; 1 mM EDTA, 5% glycerol) was prepared and 50 μL added to each well of the scintillation microplate. An adhesive strip was applied to the microplate and the plate gently shaken for at least 2 hours at room temperature, and then spun briefly on a low speed centrifuge. The plate was read on a scintillation counter suitable for 96-well microplates. For the calculation of percentage inhibition, a series of wells were added to the plate that represented the assay maximum and the assay minimum: one set that contained substrate without cells (minimum) and another set that contained substrate and cells without any compound (maximum).
The calculation of median inhibitory concentration (IC50) values for the compounds was performed using GraphPad Prism® software. Dose-response curves for each compound were plotted as fractional inhibition and data fitted to the four parameter logistic equation.

A further data set has as its target T2, human 11β-HSD2 (Homo sapiens, UniProt P80365).
T2 construct: CHO cells stably transfected with the full-length gene coding for human 11β-HSD2 were used; expressed in transfected cells; host or cells: CHO (stably transfected)
T2 sequence (P80365 1-405): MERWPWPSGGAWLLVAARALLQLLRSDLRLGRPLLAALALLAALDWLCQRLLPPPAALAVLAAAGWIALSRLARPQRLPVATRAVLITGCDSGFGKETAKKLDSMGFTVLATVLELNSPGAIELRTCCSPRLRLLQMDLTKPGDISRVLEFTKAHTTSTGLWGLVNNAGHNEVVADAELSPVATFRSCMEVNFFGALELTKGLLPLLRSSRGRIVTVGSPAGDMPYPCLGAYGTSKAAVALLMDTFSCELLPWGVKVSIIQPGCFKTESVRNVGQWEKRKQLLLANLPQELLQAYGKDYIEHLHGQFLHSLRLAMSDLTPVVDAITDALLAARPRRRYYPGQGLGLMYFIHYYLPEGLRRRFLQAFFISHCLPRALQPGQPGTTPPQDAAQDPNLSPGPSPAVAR
Nature of the data set: Cellular in vitro 11β-HSD2 enzyme inhibition assay (CHO cells). Format: cell-based. As to conditions: CHO cells transfected with human 11β-HSD2. As for the experimental part:
For measurement of inhibition of 11β-HSD2, CHO cells stably transfected with the full-length gene coding for human 11β-HSD2 were used. Assays were carried out in 96-well microplates containing 1×10^5 cells/well. Controls and compounds were plated as above, so that the final DMSO concentration in each well was 1%. To initiate the assay, 90 μL of a solution of HAMS F-12 medium containing 1% glutamine, 1% penicillin and streptomycin, and 22 nM tritiated cortisol was added to each well of the assay plate. The plate was then incubated in 5% CO2, 95% O2 at 37° C. for 16 hours.
The assay solutions were transferred to glass tubes and […] added to each tube. Each tube was vortexed thoroughly and the upper layer containing the tritiated steroid transferred to a fresh glass tube. The solvent was evaporated by placing the tubes in a heating block at 65° C. under a stream of nitrogen gas. 20 μL ethanol was added to each of the dried samples and vortexed briefly. Each sample was applied to a silica TLC plate and the plate dried. The plate was placed vertically in a glass tank containing 92% chloroform: 8% ethanol and the solvent allowed to rise up the plate. The plate was dried, placed in an imaging cassette, and overlayed with a tritium imaging plate for 1-2 days. The amount of enzyme inhibition in each sample was determined by measuring the intensity of the substrate and product spots using a phospho-imager. IC50 values for inhibitors were determined as described above for 11β-HSD1.

Data set [1] can be described thus: In vitro human liver microsomal stability assay. Format: in vitro ADME. As to conditions: human liver microsomes. As for the experimental part: To predict in vivo metabolism of compounds, the stability of compounds incubated with human liver microsomes in vitro was determined. Human liver microsome preparations were stored at −80° C. and thawed on ice prior to use. The thawed microsomes were diluted to a concentration of 2 mg/mL in 50 mM sodium phosphate, pH 7.4. Reference and test compounds were prepared as 10 mM stocks in 100% DMSO and diluted to 1 mM in acetonitrile before use. Each compound was tested in triplicate as follows:
4 μL of test or reference compound was added to a well of a 24-well microplate and 0.5 mL of 4 mM NADPH added. The plate was then transferred to a shaker for 10 minutes at room temperature. 30 μL of the compound/NADPH solution was transferred to the well of a 96-well microplate and incubated at 37° C. for 5 minutes. 30 μL of human liver microsomes (pre-incubated at 37° C. for 5 minutes) was added to the well containing the compound/NADPH solution and the plate incubated for the selected period of time (typically 0 or 30 minutes). The reaction was stopped by adding 60 μL of ice cold […] trichloroacetic acid. The plate was centrifuged at 1000 rpm for 5 minutes at room temperature and the supernatant transferred to the well of a new 96-well V-bottomed microplate for mass spectrometric analysis.
Samples were analyzed by TSQ Quantum Discovery Tandem Mass Spectrometer and Surveyor Liquid Chromatogram (Thermo, Hemel-Hempstead, UK). 10 μL of each sample was injected in a mobile phase consisting of 60%:40% methanol:5 mM ammonium acetate at a flow rate of 0.5 mL/minute. The column used was a BDS hypersil, C18, 50×2.1 mm with a 5 μm particle size.
(§1) Each compound was tuned with a spray voltage of 3000 V and a capillary temperature of 300° C. and values for tube lens, CID and product ions were determined.
The peak area for each compound was measured in triplicate for the 0 and 30 minute samples and the average of each was reported. The percentage remaining after 30 minutes was calculated as the average peak area of the sample after 30 minutes divided by the average peak area at 0 minutes. The RSD was 10% or lower for each compound.

Data set [2] is described as follows: Oral exposure and tissue distribution in rats. Type of data set: in vivo, male Sprague Dawley rats. As to conditions: rat, oral 10 mg/kg; for Cmax: male, Sprague Dawley, plasma, read-out: Plasma Cmax (maximum plasma concentration). As for the experimental part: The circulating plasma levels and tissue distribution of certain compounds were determined following oral administration of compound (10 mg/kg) to male Sprague Dawley rats. Rats (n=3 per group) were culled at 1, 4 and 6 hours post dosing and trunk blood and tissues (liver, adipose and brain) excised. Blood samples at 30 minutes and 2 hours post dosing were taken by tail nick from the 4 hour and 6 hour rats respectively.
Compound was triple extracted from plasma (prepared from blood by a high speed centrifugation step) spiked with 1 μg of a standard compound using ethyl acetate. Extracts were dried under nitrogen and re-suspended in 60% methanol/40% ammonium acetate (5 mM).
A known weight of tissue was homogenized in 3 volumes Krebs buffer. Compound was triple extracted with ethyl acetate from the supernatant of a low speed spin spiked with 1 μg of a standard compound. Extracts were dried under nitrogen and re-suspended in 60% methanol/40% ammonium acetate (5 mM).
Samples from plasma and tissue were analyzed by TSQ Quantum Discovery Tandem Mass Spectrometer and Surveyor Liquid Chromatogram (Thermo, Hemel-Hempstead, UK). 10 μL of each sample was injected in a mobile phase consisting of 60%:40% methanol:5 mM ammonium acetate at a flow rate of 0.5 mL/minute. The column used was a BDS hypersil, C18, 50×2.1 mm with a 5 μm particle size.
as §1
The peak area for each compound and for the internal standard was determined and the concentration of compound per gram of tissue or mL of plasma was calculated by comparison of the peak area ratio to a standard curve.

The mark [3] stands for this setting: HEK293, potency groups, read-out: IC50 for 11β-HSD1 (HEK293).
[4] abbreviates: HEK293 cells transfected with human 11β-HSD1, first value in cell, read-out: IC50 for 11β-HSD1 (HEK293).
The mark [5] stands for this setting: HEK293 cells, value marked * in brackets, read-out: IC50 for 11β-HSD1 (HEK293), (*) average of at least two individual experiments.

Like-named read-outs stand apart in the source and are kept apart here.

In the case of `Cc1cccnc1C1(F)CC2CCC(C1)N2C(=O)c1csc(-c2cn[nH]c2)c1` (single isomer, unassigned) [XX-16, [3-Fluoro-3-(3-methyl-pyridin-2-yl)-8-aza-bicyclo[3.2.1]oct-8-yl]-[5-(1H-pyrazol-4-yl)-thiophen-3-yl]-methanone], the IC50 at human 11β-HSD1 (setting [3]) is ≤ 100 nM; at human 11β-HSD1 (setting [4]), 9 nM; at human 11β-HSD2 it was > 10000 nM.
With `O=C(c1csc(-c2cn[nH]c2)c1)N1C2CCC1CC(O)(c1ccccn1)C2` (stereo not shown) [XX-01], the IC50 at human 11β-HSD1 (setting [3]) is ≤ 100 nM; on human 11β-HSD1 (setting [4]), 21 nM; on human 11β-HSD1 (setting [5]), 28 nM; at human 11β-HSD2, > 10000 nM. Besides, the “% Parent Remaining at 30 min” value in data set [1] was “+++ (61-100% +++)”. In addition, in data set [2], the Cmax was > 1000 ng/mL. The “Liver Cmax (maximum liver concentration)” value in data set [2] is on record as “++ (3001-5000 ++)”.
For the molecule `O=C(c1csc(-c2cn[nH]c2)c1)N1C2CCC1CC(O)(c1ncccc1Cl)C2` (stereo not shown) [XX-03], the IC50 at human 11β-HSD1 (setting [3]) is ≤ 100 nM; at human 11β-HSD1 (setting [4]) it was 12 nM; at human 11β-HSD2, > 10000 nM.
As to `Cc1cccnc1C1(O)CC2CCC(C1)N2C(=O)c1csc(-c2cn[nH]c2)c1` (stereo not shown) [XX-07], the IC50 is ≤ 100 nM at human 11β-HSD1 (setting [3]), 3 nM at human 11β-HSD1 (setting [4]) and > 10000 nM on human 11β-HSD2.
`O=C(c1csc(-c2cn[nH]c2)c1)N1C2CCC1CC(F)(c1ncccc1Cl)C2` (stereo not shown) [XX-13, [3-(3-Chloro-pyridin-2-yl)-3-fluoro-8-aza-bicyclo[3.2.1]oct-8-yl]-[5-(1H-pyrazol-4-yl)-thiophen-3-yl]-methanone]: the IC50 on human 11β-HSD1 (setting [3]) was ≤ 100 nM; at human 11β-HSD1 (setting [4]), 31 nM; on human 11β-HSD2, > 10000 nM. Also, the “% Parent Remaining at 30 min” value in data set [1] is “++ (31-60% ++)”.
With `N#CC1(c2ccccn2)CC2CCC(C1)N2C(=O)c1csc(-c2cn[nH]c2)c1` (stereo not shown) [XX-18], the IC50 is ≤ 100 nM on human 11β-HSD1 (setting [3]), 15 nM at human 11β-HSD1 (setting [4]) and > 10000 nM at human 11β-HSD2. Besides, the “% Parent Remaining at 30 min” value in data set [1] is “+++ (61-100% +++)”.
For `O=C(c1csc(-c2cn[nH]c2)c1)N1C2CCC1CC(O)(c1cnccn1)C2` (stereo not shown) [XX-24], the IC50 on human 11β-HSD1 (setting [3]) is ≤ 100 nM; at human 11β-HSD1 (setting [4]) it was 37 nM; against human 11β-HSD2, > 10000 nM. For the same molecule, in data set [2], the Cmax was 501 to 1000 ng/mL. Moreover, the “Liver Cmax (maximum liver concentration)” value in data set [2] is listed as “++ (3001-5000 ++)”.
Turning to `O=C(c1csc(-c2cn[nH]c2)c1)N1C2CCC1CC(O)(c1cscn1)C2` (stereo not shown) [XX-36], at human 11β-HSD1 (setting [3]), the IC50 is ≤ 100 nM. The “% Parent Remaining at 30 min” value in data set [1] is listed as “+++ (61-100% +++)”. Moreover, in data set [2], the Cmax was > 1000 ng/mL and the “Liver Cmax (maximum liver concentration)” value is on record as “++ (3001-5000 ++)”.
`O=C(c1csc(-c2cn[nH]c2)c1)N1C2CCC1CC(F)(c1cccnn1)C2` (stereo not shown) [XX-43]: the IC50 was ≤ 100 nM on human 11β-HSD1 (setting [3]), 47 nM at human 11β-HSD1 (setting [4]), 50 nM on human 11β-HSD1 (setting [5]) and > 10000 nM at human 11β-HSD2. Further, the “% Parent Remaining at 30 min” value in data set [1] is “+++ (61-100% +++)”.
Consider `O=C(c1csc(-c2cn[nH]c2)c1)N1CCC(O)(c2ncccc2Cl)CC1` [YY-02], for which the IC50 on human 11β-HSD1 (setting [3]) is ≤ 100 nM; on human 11β-HSD1 (setting [4]), 49 nM; on human 11β-HSD1 (setting [5]), 41 nM; against human 11β-HSD2 it was > 10000 nM. Also, in data set [1], the “% Parent Remaining at 30 min” value was “++ (31-60% ++)”. Besides, in data set [2], the Cmax is > 1000 ng/mL. The “Liver Cmax (maximum liver concentration)” value in data set [2] was “+++ (>5001 +++)”.
Take `O=C(c1csc(-c2cn[nH]c2)c1)N1CCC(O)(c2ccncc2Cl)CC1` [YY-06]: the results for the half-maximal inhibitory concentration (IC50) at human 11β-HSD1 (setting [3]), at human 11β-HSD1 (setting [4]) and at human 11β-HSD2 were ≤ 100 nM, 28 nM and > 10000 nM, respectively. In data set [1], the “% Parent Remaining at 30 min” value is given as “++ (31-60% ++)”.

One may read the IC50 as the concentration that inhibits the measured activity by half.
